Measurements reported in patent US20170183644A1, “DRUG COCKTAIL ANALYSES USING MICROSCALE VORTEX ASSISTED ELECTROPORATION” (President and Fellows of Harvard College, priority 2014, published 2017).
One block for each molecule: values may come before it.

Experiments:
[1] = tested on: Ca-27 squamous carcinoma; conditions: Ca-27 squamous carcinoma (Wang et al., 2012); read-out: Literature IC50; cited from earlier work
[2] = tested on: MDA-MB-231 cells; assay: Conventional well-plate drug screening assay, CellTiter-Glo cell viability; type: cell-based; conditions: for effect on cell viability as a single agent: conventional assay
Protocol: These cells were incubated in a humidified incubator at 37° C. with 0% CO2 environment. Cells were harvested for experiments 2 days after the seeding by treating them with 0.25% trypsin-EDTA for 2 minutes. […] Conventional drug screening assays utilizing well-plates were conducted in parallel to evaluate the performance of the proposed microfluidic system. […] For control experiments using the conventional method, the concentrations of drugs were determined such that cells would be exposed in a well plate for 24 hours to the drug amount that is identical to those used for the microfluidic counterpart. […] The CellTiter-Glo Luminescent Cell Viability Assay (Promega, USA) was used to determine the cytotoxicity of tested drugs. First, the correlation between the luminescent intensity and the number of viable cells for the tested cell line was established from luminescence measurements from 96 well plates containing known-quantity of viable cells (LuMate, Model 4400) (see ESI FIG. 2 for calibration curve). For cytotoxicity studies on cells treated with the drugs, all cells present in the well, regardless their viability, were manually counted prior to adding the CellTiter-Glo reagent to the well. The number of viable cells was determined by identifying the corresponding number of viable cells represented by the measured luminescent intensity from the calibration curve. Viability was determined by taking the ratio between the number of viable cells and the total number of treated cells presented in the well.

[3] = tested on: MDA-MB-231 cells; assay: Microfluidic vortex-assisted electroporation drug screening assay, CellTiter-Glo cell viability; type: cell-based; conditions: for IC50: microfluidic electroporation, single agent, read-out: Proposed IC50; for effect on cell viability as a single agent: microfluidic assay
Protocol: These cells were incubated in a humidified incubator at 37° C. with […] environment. Cells were harvested for experiments 2 days after the seeding by treating them with 0.25% trypsin-EDTA for 2 minutes. The cells were pelleted by centrifuging for 5 minutes at 200×g and resuspended in the growth media to have a final concentration of 5×10^5 cells/mL. The system utilized the pneumatic flow control unit and the electrical equipment that we previously developed. Their detailed specifications and visualized operational protocols (Yun et al., 2013; Vickers et al., 2014) can be found elsewhere. In brief, the flow control unit independently and promptly pressurizes individual solution vials for rapid solution exchanges through the microfluidic system while the electrical equipment generates high-voltage short pulses across the electroporation chambers on demand. […] Solution vials, individually containing cells, drugs and a growth media for flushing, were mounted into the pneumatic flow control unit, and PEEK tubes from each vial inserted into designated inlet ports in the microfluidic electroporator. The system was flushed with the growth media at the operating pressure of 40 psi (equivalent to a flow rate of 400 μL/minute) for 90 seconds prior to the target cell injection step in order to prime the flow speed required for cell trapping (Hur et al., 2011). Once the desired size and number distribution of trapped cells were attained in each cell trapping vortex, not-trapped cells were removed from the device by switching the active solution port from the cell solution to the flush solution. […] The magnitude, V, the width, Kt, and the frequency of applied electrical pulses were monitored in real-time using an oscilloscope (Agilent, USA). Drug delivery doses were varied by exposing trapped cells to a single drug for incubation durations of 30, 60 and 120 seconds in continuous flow. For dual drug delivery tests, trapped cells were sequentially incubated in individual drugs with various dosage combinations by systematically changing treatment duration ratios of two drugs (e.g., 30:30 seconds, 30:60 seconds or 30:120 seconds). Upon completion of the drug delivery process, treated cells were suspended in the growth media and released from the device for downstream analysis by lowering the operating pressure to 30 psi. Collected cells were seeded in 96 well plates and cultured for 24 to 48 hours prior to the cytotoxicity assays. […] Conventional drug screening assays utilizing well-plates were conducted in parallel to evaluate the performance of the proposed microfluidic system. […] For control experiments using the conventional method, the concentrations of drugs were determined such that cells would be exposed in a well plate for 24 hours to the drug amount that is identical to those used for the microfluidic counterpart. […] The CellTiter-Glo Luminescent Cell Viability Assay (Promega, USA) was used to determine the cytotoxicity of tested drugs. First, the correlation between the luminescent intensity and the number of viable cells for the tested cell line was established from luminescence measurements from 96 well plates containing known-quantity of viable cells (LuMate, Model 4400) (see ESI FIG. 2 for calibration curve). For cytotoxicity studies on cells treated with the drugs, all cells present in the well, regardless their viability, were manually counted prior to adding the CellTiter-Glo reagent to the well. The number of viable cells was determined by identifying the corresponding number of viable cells represented by the measured luminescent intensity from the calibration curve. Viability was determined by taking the ratio between the number of viable cells and the total number of treated cells presented in the well.

[4] = tested on: MDA-MB-231; conditions: MDA-MB-231 (Akbos et al., 2005); read-out: Literature IC50; cited from earlier work
[5] = tested on: MC38 colon cancer cell line; conditions: MC38 colon cancer cell line (Kuriyoma et al., 2000); read-out: Literature IC50; cited from earlier work
[6] = Homo sapiens, MDA-MB-231, well plate, single agent, read-out: Conventional IC50

IC50 ([2]; Homo sapiens, MDA-MB-231, FIG. 2 legend, value matches conventional assay, read-out: IC50 (FIG. 2 legend)): 2000 µM
IC50 [2, 6]: 2000 µM
IC50 ([3]; Homo sapiens, MDA-MB-231): 302 µM
Molecule: Nc1ccn([C@@H]2O[C@H](CO)[C@@H](O)C2(F)F)c(=O)n1 [Gemcitabine, gemcitabine]
IC50 [1]: 340 µM

IC50 ([2]; Homo sapiens, MDA-MB-231, FIG. 2 legend, values match conventional assay, read-out: IC50 (FIG. 2 legend)): 2 µM
IC50 [2, 6]: 2 µM
IC50 ([3]; Homo sapiens, MDA-MB-231): 1.2 µM
Molecule: CC[C@@]1(O)C(=O)OCc2c1cc1n(c2=O)Cc2cc3c(CN(C)C)c(O)ccc3nc2-1 [Topotecan, topotecan]
effect on cell viability as a single agent ([2]; single agent): dose-dependently reduced survival
effect on cell viability as a single agent [3]: dose-dependently reduced survival
IC50 [4]: 1.1 µM

Molecule: O=c1c(O)c(-c2ccc(O)c(O)c2)oc2cc(O)cc(O)c12 [quercetin]
effect on cell viability as a single agent ([2]; single agent): negligible and dose independent
effect on cell viability as a single agent ([2]; single agent, listed as Quercetin): negligible cytotoxic effect
effect on cell viability as a single agent [3]: negligible and dose independent
effect on cell viability as a single agent ([3]; listed as Quercetin): negligible cytotoxic effect

Molecule: bleomycin
IC50 [5]: 12 µM
IC50 ([2]; FIG. 2 legend, values match conventional assay, read-out: IC50 (FIG. 2 legend)): 30 µM
IC50 ([2]; well plate, single agent, read-out: Conventional IC50): 20 µM
IC50 [3]: 0.12 µM
